These are literature values, as cited in patent US12358889B2, “Vaporizable alkaloid compositions and methods of use thereof” (Ready Mix Naturals, LLC, priority 2023, dated 2025).

One data set addresses TRPV1 (Homo sapiens, UniProt Q8NER1). The note with it: among phytocannabinoids.
The next data set addresses TRPA1 (Homo sapiens, UniProt O75762).
Another data set deals with T1, TRPV2 (Homo sapiens, UniProt Q9Y5S1).
T1 sequence (Q9Y5S1 1-764): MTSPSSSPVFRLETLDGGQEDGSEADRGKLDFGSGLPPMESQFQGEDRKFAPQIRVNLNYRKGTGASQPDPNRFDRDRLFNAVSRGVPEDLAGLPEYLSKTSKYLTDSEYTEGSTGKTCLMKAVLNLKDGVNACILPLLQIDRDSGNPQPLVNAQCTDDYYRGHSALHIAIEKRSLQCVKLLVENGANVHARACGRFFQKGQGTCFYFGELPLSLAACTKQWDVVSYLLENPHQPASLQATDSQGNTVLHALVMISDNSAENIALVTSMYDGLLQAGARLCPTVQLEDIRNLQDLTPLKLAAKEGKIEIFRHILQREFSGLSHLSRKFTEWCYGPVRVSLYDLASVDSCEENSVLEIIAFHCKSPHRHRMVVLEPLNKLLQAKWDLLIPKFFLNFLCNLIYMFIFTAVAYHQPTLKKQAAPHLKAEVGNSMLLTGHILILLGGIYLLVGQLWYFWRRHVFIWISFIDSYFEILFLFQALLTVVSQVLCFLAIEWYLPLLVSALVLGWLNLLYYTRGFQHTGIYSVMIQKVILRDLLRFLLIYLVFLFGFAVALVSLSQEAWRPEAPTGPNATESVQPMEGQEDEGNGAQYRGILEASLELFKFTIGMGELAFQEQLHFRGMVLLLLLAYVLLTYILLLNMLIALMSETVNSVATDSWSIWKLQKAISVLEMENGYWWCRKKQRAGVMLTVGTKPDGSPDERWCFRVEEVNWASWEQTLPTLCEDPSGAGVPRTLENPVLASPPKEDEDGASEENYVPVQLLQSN
The note with it: among phytocannabinoids.

TRPA1, sequence (O75762 whole entry, species assumed): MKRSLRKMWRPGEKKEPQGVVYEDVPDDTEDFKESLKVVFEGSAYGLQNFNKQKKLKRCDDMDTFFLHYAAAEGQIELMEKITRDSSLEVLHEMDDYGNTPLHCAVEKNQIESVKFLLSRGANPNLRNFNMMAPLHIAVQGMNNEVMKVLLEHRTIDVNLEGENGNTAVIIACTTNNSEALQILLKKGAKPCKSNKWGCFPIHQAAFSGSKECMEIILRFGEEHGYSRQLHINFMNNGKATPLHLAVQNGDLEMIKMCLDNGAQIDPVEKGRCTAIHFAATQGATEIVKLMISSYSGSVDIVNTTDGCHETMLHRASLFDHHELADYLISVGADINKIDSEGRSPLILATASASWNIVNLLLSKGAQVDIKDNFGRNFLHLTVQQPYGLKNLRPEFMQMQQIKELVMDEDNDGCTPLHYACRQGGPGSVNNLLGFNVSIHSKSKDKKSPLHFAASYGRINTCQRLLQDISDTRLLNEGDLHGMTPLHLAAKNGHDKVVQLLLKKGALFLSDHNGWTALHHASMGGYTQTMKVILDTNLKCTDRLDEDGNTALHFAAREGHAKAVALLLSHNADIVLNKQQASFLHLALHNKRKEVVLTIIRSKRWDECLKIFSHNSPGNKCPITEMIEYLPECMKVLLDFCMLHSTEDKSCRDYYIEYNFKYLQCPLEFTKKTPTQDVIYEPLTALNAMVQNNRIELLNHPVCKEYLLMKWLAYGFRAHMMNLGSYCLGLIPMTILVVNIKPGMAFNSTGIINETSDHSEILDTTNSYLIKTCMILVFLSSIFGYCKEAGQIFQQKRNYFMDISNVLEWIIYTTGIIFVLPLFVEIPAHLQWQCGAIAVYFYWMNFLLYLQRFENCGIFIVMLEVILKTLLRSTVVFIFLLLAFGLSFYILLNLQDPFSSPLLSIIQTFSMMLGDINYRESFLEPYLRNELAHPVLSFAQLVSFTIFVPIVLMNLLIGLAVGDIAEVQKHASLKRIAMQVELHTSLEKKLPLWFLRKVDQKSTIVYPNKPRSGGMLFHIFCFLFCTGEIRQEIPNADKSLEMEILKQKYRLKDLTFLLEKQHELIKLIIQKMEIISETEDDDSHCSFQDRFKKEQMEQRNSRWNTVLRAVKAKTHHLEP
TRPV1, sequence (Q8NER1 whole entry, species assumed): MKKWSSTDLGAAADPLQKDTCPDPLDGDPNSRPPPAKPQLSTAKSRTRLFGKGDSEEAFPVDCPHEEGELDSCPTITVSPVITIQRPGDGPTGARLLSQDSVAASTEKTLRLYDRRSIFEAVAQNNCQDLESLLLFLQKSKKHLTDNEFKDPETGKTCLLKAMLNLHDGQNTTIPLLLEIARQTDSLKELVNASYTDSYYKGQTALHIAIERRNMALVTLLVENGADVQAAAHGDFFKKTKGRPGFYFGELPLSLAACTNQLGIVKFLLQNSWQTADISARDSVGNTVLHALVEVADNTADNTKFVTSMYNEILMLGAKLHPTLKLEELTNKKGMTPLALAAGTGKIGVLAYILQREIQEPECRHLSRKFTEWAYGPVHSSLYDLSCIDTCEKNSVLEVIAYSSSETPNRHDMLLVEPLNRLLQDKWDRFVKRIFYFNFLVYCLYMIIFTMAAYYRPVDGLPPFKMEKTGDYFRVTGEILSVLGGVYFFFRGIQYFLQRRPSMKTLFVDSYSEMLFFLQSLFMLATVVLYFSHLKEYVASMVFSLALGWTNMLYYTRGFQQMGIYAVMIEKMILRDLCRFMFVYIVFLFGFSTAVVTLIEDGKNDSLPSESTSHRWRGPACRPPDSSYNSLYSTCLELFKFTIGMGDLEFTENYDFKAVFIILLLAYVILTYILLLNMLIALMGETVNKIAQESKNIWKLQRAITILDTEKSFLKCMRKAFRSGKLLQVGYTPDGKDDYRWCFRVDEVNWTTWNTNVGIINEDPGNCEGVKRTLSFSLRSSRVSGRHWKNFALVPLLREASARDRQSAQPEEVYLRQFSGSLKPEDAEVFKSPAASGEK

As for `C=C(C)[C@@H]1CCC(C)=C[C@H]1c1c(O)cc(CCCCC)cc1O` [CBD, cannabidiol], on TRPV1, the “agonism of TRPV1” value was “most potent and efficacious phytocannabinoid agonist of TRPV1”.

Consider `CN1CCCC1c1cccnc1` (stereo not shown) [nicotine], for which the “activation of TRPA1” value on TRPA1 is on record as “known activator of TRPA1”. As for `CCCCCc1cc(O)c2c(c1)OC(C)(C)[C@@H]1CCC(C)=C[C@@H]21` [Δ^9-THC, Δ^9-tetrahydrocannabinol], the “activation of TRPV2” value on TRPV2 is “most potent phytocannabinoid for activating TRPV2”. Further, the “activation of TRPA1” value at TRPA1 is recorded as “also activates TRPA1”.
